The values below come from PMC6927578 (Archiv der Pharmazie, 2016).

Like-named read-outs stand apart in the source and are kept apart here.

In data set [1] the test system is HDAC activity from HeLa cell lysates. The data set is described as follows: Fluor de Lys in vitro fluorescence HDAC activity assay with HeLa cell lysates. In kind it is biochemical, human. Conditions: for fold reduced potency compared to SAHA: HeLa cell lysates IC50 ratio; for IC50 / % activity remaining: HeLa cell lysates; for IC50: mean of three trials with standard error; for % activity remaining: 250 μM compound.

Another data set deals with HDAC1 (Homo sapiens, UniProt Q13547). Description: Fluor de Lys HDAC isoform assay, HDAC1. Conditions: for isoform selectivity among HDAC1, 3 and 6: 125 μM single concentration screen (Fig. 2).
Sequence of HDAC1 (Q13547 whole entry, canonical isoform): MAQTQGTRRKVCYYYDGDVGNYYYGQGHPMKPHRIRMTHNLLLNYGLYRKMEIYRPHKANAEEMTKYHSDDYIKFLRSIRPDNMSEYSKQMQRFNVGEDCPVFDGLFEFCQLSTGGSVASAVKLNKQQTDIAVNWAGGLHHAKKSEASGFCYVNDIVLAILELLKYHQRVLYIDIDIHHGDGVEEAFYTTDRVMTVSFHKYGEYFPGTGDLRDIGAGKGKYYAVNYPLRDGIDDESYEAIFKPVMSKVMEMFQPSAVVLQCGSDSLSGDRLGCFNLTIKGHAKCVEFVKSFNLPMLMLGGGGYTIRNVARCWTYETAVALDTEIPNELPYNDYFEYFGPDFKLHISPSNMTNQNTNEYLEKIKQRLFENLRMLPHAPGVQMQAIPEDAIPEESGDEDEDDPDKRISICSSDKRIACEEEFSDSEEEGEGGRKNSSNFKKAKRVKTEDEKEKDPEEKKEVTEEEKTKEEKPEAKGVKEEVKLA
In the next data set the target is T1, HDAC6 (Homo sapiens, UniProt Q9UBN7).
T1 sequence (Q9UBN7 1-1215): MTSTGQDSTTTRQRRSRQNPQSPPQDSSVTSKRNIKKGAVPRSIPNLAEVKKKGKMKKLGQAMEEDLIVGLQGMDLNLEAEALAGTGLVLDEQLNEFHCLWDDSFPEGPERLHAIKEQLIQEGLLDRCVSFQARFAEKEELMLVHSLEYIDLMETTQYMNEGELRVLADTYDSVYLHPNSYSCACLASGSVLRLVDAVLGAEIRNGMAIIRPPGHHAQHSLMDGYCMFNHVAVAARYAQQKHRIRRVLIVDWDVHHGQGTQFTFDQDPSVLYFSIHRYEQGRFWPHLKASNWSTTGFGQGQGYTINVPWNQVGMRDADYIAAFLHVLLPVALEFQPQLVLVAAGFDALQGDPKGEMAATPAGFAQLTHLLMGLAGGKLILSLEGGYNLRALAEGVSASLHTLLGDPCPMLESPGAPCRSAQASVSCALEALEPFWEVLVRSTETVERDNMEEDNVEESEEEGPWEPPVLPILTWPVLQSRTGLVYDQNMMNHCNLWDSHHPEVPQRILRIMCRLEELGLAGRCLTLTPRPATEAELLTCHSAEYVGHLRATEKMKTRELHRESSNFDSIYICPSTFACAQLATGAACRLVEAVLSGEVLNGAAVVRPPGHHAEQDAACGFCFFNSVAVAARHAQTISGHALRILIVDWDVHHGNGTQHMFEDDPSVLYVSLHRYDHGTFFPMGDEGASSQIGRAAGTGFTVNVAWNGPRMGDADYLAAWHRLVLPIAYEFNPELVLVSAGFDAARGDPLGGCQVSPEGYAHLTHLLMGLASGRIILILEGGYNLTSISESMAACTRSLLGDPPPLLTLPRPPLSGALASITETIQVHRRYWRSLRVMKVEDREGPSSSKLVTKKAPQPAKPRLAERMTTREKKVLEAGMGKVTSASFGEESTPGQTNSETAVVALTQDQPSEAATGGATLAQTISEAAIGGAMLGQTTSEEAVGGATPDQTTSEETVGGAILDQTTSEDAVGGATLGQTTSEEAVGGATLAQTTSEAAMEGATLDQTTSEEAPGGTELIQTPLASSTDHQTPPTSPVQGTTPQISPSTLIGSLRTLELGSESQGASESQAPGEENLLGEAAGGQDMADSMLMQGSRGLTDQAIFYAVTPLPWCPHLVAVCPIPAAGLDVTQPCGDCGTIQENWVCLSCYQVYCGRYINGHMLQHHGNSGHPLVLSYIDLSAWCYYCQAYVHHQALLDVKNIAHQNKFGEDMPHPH
The data set is described as follows: Fluor de Lys HDAC isoform assay, HDAC6.

A further data set concerns the target HDAC3 (Homo sapiens, UniProt O15379). The data set is described as follows: Fluor de Lys HDAC isoform assay, HDAC3.
The nature of data set [2]: Solubility observed in the HDAC assay. Conditions: assay conditions; prevented testing above 250 μM. It counts as physicochemical.
Where [3] appears, read: 125 μM single concentration screen.

Sequence of HDAC3 (O15379 whole entry, canonical isoform): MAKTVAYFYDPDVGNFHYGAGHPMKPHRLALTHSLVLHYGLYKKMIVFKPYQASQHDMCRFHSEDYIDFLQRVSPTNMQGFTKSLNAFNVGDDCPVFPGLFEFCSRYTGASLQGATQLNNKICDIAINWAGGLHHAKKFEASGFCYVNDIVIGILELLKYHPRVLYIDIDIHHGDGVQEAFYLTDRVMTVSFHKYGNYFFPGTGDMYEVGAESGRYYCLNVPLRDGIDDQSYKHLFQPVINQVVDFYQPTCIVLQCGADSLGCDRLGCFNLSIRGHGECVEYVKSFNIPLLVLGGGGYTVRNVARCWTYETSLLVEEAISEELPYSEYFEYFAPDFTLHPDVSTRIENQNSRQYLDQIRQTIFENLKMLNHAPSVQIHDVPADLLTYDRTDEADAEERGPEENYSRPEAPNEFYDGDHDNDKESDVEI
Sequence of HDAC3 (Q9Y618 395-489 partner limits assumed): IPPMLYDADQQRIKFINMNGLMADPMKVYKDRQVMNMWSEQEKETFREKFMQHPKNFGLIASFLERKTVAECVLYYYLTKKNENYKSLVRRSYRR

In general, IC50 refers to the midpoint of a concentration-inhibition curve. For `CN(O)C(=O)CCCCCCC(=O)Nc1ccccc1` [Compound 2a, N^1-hydroxy-N^1-methyl-N^8-phenyloctanediamide], in data set [1], the “fold reduced potency compared to SAHA” value is recorded as greater than 8800 fold and the IC50 came to 794 ± 41 µM. Also, the “isoform selectivity among HDAC1, 3 and 6” value on HDAC1 is given as “little to no isoform selectivity”.

As to `CCCCCN(O)C(=O)CCCCCCC(=O)Nc1ccccc1` [Compound 2b, N^1-pentyl-N^1-hydroxy-N^8-phenyloctanediamide], in data set [1], the “fold reduced potency compared to SAHA” value is on record as 1700 fold and the midpoint of inhibition, the IC50, lay at 153 ± 14 µM. For the same compound, the “isoform selectivity among HDAC1, 3 and 6” value on HDAC1 is on record as “little to no isoform selectivity”.

For the compound `O=C(CCCCCCC(=O)N(O)Cc1ccccc1)Nc1ccccc1` [Compound 2c, N^1-benzyl-N^1-hydroxy-N^8-phenyloctanediamide], the IC50 was found to be 293 ± 32 µM in data set [1], 287 ± 9 µM against HDAC6, 440 ± 23 µM against HDAC3 and 177 ± 21 µM against HDAC1. Moreover, the “isoform selectivity among HDAC1, 3 and 6” value on HDAC1 is on record as “preferential HDAC1 inhibition”. At HDAC1 (ratio of IC50 values), the “preference for HDAC1 versus HDAC3” value stood at 2.5 fold.

Take `O=C(CCCCCCC(=O)N(O)CCc1ccccc1)Nc1ccccc1` [Compound 2d, N^1-hydroxy-N^1-phenethyl-N^8-phenyloctanediamide]: in data set [1], the “% activity remaining” value is 80 ± 2% activity at 250 μM^b) and the IC50 is greater than 500 µM. The solubility result in data set [2] was “low solubility at high concentrations”. Further, the “isoform selectivity among HDAC1, 3 and 6” value on HDAC1 was “roughly similar potency against the isoforms”.

Turning to `O=C(CCCCCCC(=O)N(O)Cc1ccc(-c2ccccc2)cc1)Nc1ccccc1` [Compound 2e, N^1-(biphenyl-4-methyl)-N^1-hydroxy-N^8-phenyloctanediamide], in data set [1], the “% activity remaining” value turned out to be 101 ± 1% activity with 250 μM^b) and the IC50 is greater than 500 µM. For the same compound, the solubility entry in data set [2] was “low solubility at high concentrations”. Also, at HDAC6 (setting [3]), the “inhibition of HDAC6” value is on record as “statistically insignificant inhibition”. In addition, the “inhibition of HDAC3” value against HDAC3 (setting [3]) is recorded as “statistically insignificant inhibition”. Also, the “activity remaining, HDAC1” value on HDAC1 (setting [3]) is on record as 58±2%. In addition, the “isoform selectivity among HDAC1, 3 and 6” value at HDAC1 is given as “preferential HDAC1 inhibition”. The IC50 at HDAC1 (read-out: IC50 HDAC1, mean of at least three trials with standard error) was 233 ± 40 µM.
